Measurements as given in the supplement of paper PMC11208160.

test: recombinant barcode read abundance after kanamycin selection (control-corrected) (log10(CPM+1)); higher = more efficient recombination; sequences stand for … in AGTGCAGAGAAAATCGGCCAGTTTTCTCTGCCTGCAGTCCGCATGCCGT…AGATTTATGCAGCGGACTGCCTTTCTCCCAAAGTGATAAACCGGACAGTATCATGGACCGGTTTTCCCGGTAATCCGTATTTGCAAGGTTGGTTTCACT; site = the 11-nt target
Experimental: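 Pooled E. coli target-specificity screen for the IS621 bridge recombinase. Each library plasmid pairs an 11-nt target (CT core) with a bridge RNA whose target-binding loop (9-nt LTG + 4-nt RTG) is reprogrammed; the rest of the 177-nt WT IS621 bridge RNA scaffold is fixed. The plasmid is co-electroporated with a WT donor plasmid; recombinase is induced with 0.1 mM IPTG and recombinants are selected on kanamycin. Recombinant barcodes are sequenced, converted to CPM, averaged over two biological replicates and corrected by the unselected control CPM. Molecule = full bridge RNA written as DNA: LTG = specificity nt 1-9, RTG = reverse complement of specificity nt 8-11, in the WT scaffold.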
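Further: IS621 recombinase and bridge RNA in Escherichia coli cells.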

| Sequence | recombinant barcode read abundance (log10) |
| --- | --- |
| ACACTAACTTGGGTTCTAACCTGTTGCCT (site AAACTAACTAG) | 0.071 |
| ACACTAACTTGGGTTCTAACCTGTTGCCT (site ACACTAACTAG) | 0.404 |
| ACACTAACTTGGGTTCTAACCTGTTGCCT (site AGACTAACTAG) | 0.0933 |
| ACACTAACTTGGGTTCTAACCTGTTGCCT (site ATACTAACTAG) | 0 |
| ACACTGGCTTGGGTTCTAACCTGTTGCCT (site ACACTGGCTAG) | 0.987 |
| ACACTGGCTTGGGTTCTAACCTGTTGCCT (site ACCCTGGCTAG) | 0.0877 |
| ACACTGGCTTGGGTTCTAACCTGTTGCCT (site ACGCTGGCTAG) | 0.025 |
| ACACTGGCTTGGGTTCTAACCTGTTGCCT (site ACTCTGGCTAG) | 0 |
| ACAGAGACTTGGGTTCTAACCTGTTGCAC (site ACAGAGACTGT) | 1.76 |
| ACAGAGACTTGGGTTCTAACCTGTTGCAC (site ACAGAGACTTA) | 0.183 |
| ACAGATTCTTGGGTTCTAACCTGTTGCCT (site ACAGATTCTAG) | 1.73 |
| ACAGATTCTTGGGTTCTAACCTGTTGCCT (site ATAGAGTCTAG) | 0.0143 |
| ACAGGAGCTTGGGTTCTAACCTGTTGCGG (site ACACGACCTCC) | 0.154 |
| ACAGGAGCTTGGGTTCTAACCTGTTGCGG (site ACAGGAGCTCC) | 2.61 |
| ACAGGATCTTGGGTTCTAACCTGTTGCTT (site ACAGAATCTAG) | 0.55 |
| ACAGGATCTTGGGTTCTAACCTGTTGCTT (site ACAGGATCTAA) | 2.18 |
| ACAGGTTCTTGGGTTCTAACCTGTTGCCT (site AAAGGTTCTAG) | 0.0508 |
| ACAGGTTCTTGGGTTCTAACCTGTTGCCT (site ACAGGTTCTAG) | 2.24 |
| ACAGGTTCTTGGGTTCTAACCTGTTGCCT (site AGAGGTTCTAG) | 0.283 |
| ACAGGTTCTTGGGTTCTAACCTGTTGCCT (site ATAGGTTCTAG) | 0.0396 |
| ACAGTAGCTTGGGTTCTAACCTGTTGCCG (site ACAGTAGCTCC) | 0.189 |

| Sequence | recombinant barcode read abundance (log10) |
| --- | --- |
| ACAGTAGCTTGGGTTCTAACCTGTTGCCG (site ACAGTAGCTCG) | 0.862 |
| ACATACACTTGGGTTCTAACCTGTTGCCT (site ACATACACTAG) | 0.991 |
| ACATACACTTGGGTTCTAACCTGTTGCCT (site ACCTACCCTAG) | 0.298 |
| ACATCAACTTGGGTTCTAACCTGTTGCCT (site ACATCAACTAG) | 0.807 |
| ACATCAACTTGGGTTCTAACCTGTTGCCT (site ACCTCAACTAG) | 0.0149 |
| ACATCAACTTGGGTTCTAACCTGTTGCCT (site ACGTCAACTAG) | 0.0953 |
| ACATCAACTTGGGTTCTAACCTGTTGCCT (site ACTTCAACTAG) | 0.0926 |
| ACATCTACTTGGGTTCTAACCTGTTGCTA (site ACATCTACTTA) | 0.145 |
| ACATCTACTTGGGTTCTAACCTGTTGCTA (site ACTTCTACTTA) | 0.0475 |
| ACATGGTCTTGGGTTCTAACCTGTTGCGT (site ACATGGTCTAC) | 2.92 |
| ACATGGTCTTGGGTTCTAACCTGTTGCGT (site ACTGGGTCTAC) | 0.115 |
| ACATGTCCTTGGGTTCTAACCTGTTGCCT (site ACATGTCCTAA) | 0.0846 |
| ACATGTCCTTGGGTTCTAACCTGTTGCCT (site ACATGTCCTAC) | 0.0127 |
| ACATGTCCTTGGGTTCTAACCTGTTGCCT (site ACATGTCCTAG) | 0.828 |
| ACATGTCCTTGGGTTCTAACCTGTTGCCT (site ACATGTCCTAT) | 0.00753 |
| ACATGTCCTTGGGTTCTAACCTGTTGCTT (site ACATGTCCTAA) | 0.333 |
| ACATGTCCTTGGGTTCTAACCTGTTGCTT (site ACATGTCCTAC) | 0.0155 |
| ACATGTCCTTGGGTTCTAACCTGTTGCTT (site ACATGTCCTAG) | 0.136 |
| ACATGTCCTTGGGTTCTAACCTGTTGCTT (site ACATGTCCTAT) | 0.287 |
| ACATGTGCTTGGGTTCTAACCTGTTGCCT (site ACAGGTGCTAG) | 0.0246 |
| ACATGTGCTTGGGTTCTAACCTGTTGCCT (site ACATGTGCTAG) | 1.66 |

| Sequence | recombinant barcode read abundance (log10) |
| --- | --- |
| ACATTAGCTTGGGTTCTAACCTGTTGCTG (site ACAATAGCTCA) | 0.182 |
| ACATTAGCTTGGGTTCTAACCTGTTGCTG (site ACACTAGCTCA) | 0.0561 |
| ACATTAGCTTGGGTTCTAACCTGTTGCTG (site ACAGTAGCTCA) | 0.18 |
| ACATTAGCTTGGGTTCTAACCTGTTGCTG (site ACATTAGCTCA) | 0.603 |
| ACATTGTCTTGGGTTCTAACCTGTTGCGG (site ACAATGTCTCC) | 0.13 |
| ACATTGTCTTGGGTTCTAACCTGTTGCGG (site ACACTGTCTCC) | 0.236 |
| ACATTGTCTTGGGTTCTAACCTGTTGCGG (site ACAGTGTCTCC) | 0.00595 |
| ACATTGTCTTGGGTTCTAACCTGTTGCGG (site ACATTGTCTCC) | 1.1 |
| ACCAACACTTGGGTTCTAACCTGTTGCTT (site ACCAACACTAA) | 0.115 |
| ACCAACACTTGGGTTCTAACCTGTTGCTT (site TATTTAGCTCC) | 0.259 |
| ACCACGCCTTGGGTTCTAACCTGTTGCCT (site ACCACGCCTAG) | 0.342 |
| ACCACGCCTTGGGTTCTAACCTGTTGCCT (site ATCACGCCTAG) | 0.0537 |
| ACCAGCCCTTGGGTTCTAACCTGTTGCTG (site ACCAGCCCTCA) | 1.38 |
| ACCAGCCCTTGGGTTCTAACCTGTTGCTG (site TGATATTCTAG) | 0.0743 |
| ACCAGTCCTTGGGTTCTAACCTGTTGCTA (site ACCAGTCCTCA) | 0.065 |
| ACCAGTCCTTGGGTTCTAACCTGTTGCTA (site ACCAGTCCTTA) | 0.934 |
| ACCATACCTTGGGTTCTAACCTGTTGCAT (site ACCATACCTAT) | 0.385 |
| ACCATACCTTGGGTTCTAACCTGTTGCAT (site TAGGATTCTGC) | 0.124 |
| ACCCAATCTTGGGTTCTAACCTGTTGCAC (site ACCCAATCTGT) | 1.94 |
| ACCCAATCTTGGGTTCTAACCTGTTGCAC (site TAGGCTACTTG) | 0.0478 |
| ACCCAGCCTTGGGTTCTAACCTGTTGCCT (site ACCCAGCCTAA) | 0.146 |

| Sequence | recombinant barcode read abundance (log10) |
| --- | --- |
| ACCCAGCCTTGGGTTCTAACCTGTTGCCT (site ACCCAGCCTAC) | 1.27 |
| ACCCAGCCTTGGGTTCTAACCTGTTGCCT (site ACCCAGCCTAG) | 1.44 |
| ACCCAGCCTTGGGTTCTAACCTGTTGCCT (site ACCCAGCCTAT) | 0.522 |
| ACCCAGTCTTGGGTTCTAACCTGTTGCGG (site ACCCAGTCTCC) | 2.08 |
| ACCCAGTCTTGGGTTCTAACCTGTTGCGG (site GTAAGTGCTAT) | 0.151 |
| ACCCCGTCTTGGGTTCTAACCTGTTGCCT (site ACCCCGTCTAG) | 1.65 |
| ACCCCGTCTTGGGTTCTAACCTGTTGCCT (site ACCCTGTCTCG) | 0.0376 |
| ACCCTGTCTTGGGTTCTAACCTGTTGCCG (site ACCCCGTCTAG) | 0.0728 |
| ACCCTGTCTTGGGTTCTAACCTGTTGCCG (site ACCCTGTCTCG) | 2.44 |
| ACCCTTACTTGGGTTCTAACCTGTTGCCT (site AACCTTACTAG) | 0.0611 |
| ACCCTTACTTGGGTTCTAACCTGTTGCCT (site ACCCTTACTAG) | 1.07 |
| ACCCTTACTTGGGTTCTAACCTGTTGCCT (site AGCCTTACTAG) | 0.00699 |
| ACCCTTACTTGGGTTCTAACCTGTTGCCT (site ATCCTTACTAG) | 0.142 |
| ACCGAGACTTGGGTTCTAACCTGTTGCCT (site ACCGAGACTAG) | 0.224 |
| ACCGAGACTTGGGTTCTAACCTGTTGCCT (site ACCGCGACTAG) | 0.113 |
| ACCGAGACTTGGGTTCTAACCTGTTGCCT (site ACCGGGACTAG) | 0.0279 |
| ACCGAGACTTGGGTTCTAACCTGTTGCCT (site ACCGTGACTAG) | 0.0449 |
| ACCGAGGCTTGGGTTCTAACCTGTTGCCT (site AACGACGCTAG) | 0.193 |
| ACCGAGGCTTGGGTTCTAACCTGTTGCCT (site ACCGAGGCTAG) | 0.824 |
